# Measured values from patent US20210040134A1, “COMBINATIONS OF MACROLIDE COMPOUNDS AND IMMUNE CHECKPOINT INHIBITORS” (ISR IMMUNE SYSTEM REGULATION HOLDING AB (PUBL), priority 2018, published 2021).
# How the values were obtained:
# [1] = Caco-2 bidirectional permeability assay; assay type: in vitro ADME; conditions: human, Caco-2; B to A permeability divided by A to B permeability
# Experimental: (§1) 10 μM Test article was added to the apical (A) surface of Caco-2 cell monolayers (in HBSS buffer with 0.3% DMSO and 5 μM LY at 37 degrees C.) and compound permeation into the basolateral (B) compartment measured following 90 minutes incubation. This was also performed in the reverse direction (basolateral to apical) to investigate active transport. LC-MS/MS is used to quantify levels of both the test and standard control compounds. Efflux ratio was calculated by dividing the B to A permeability by the A to B permeability.
# (§2) Drug permeability:Papp=(VA/(Area×time))×([drug]accepter/(([drug]initial,donor)×Dilution Factor)
# (§3) The permeability of the compounds of the invention was assessed in a standard caco-2 bidirectional permeability assay (see general methods).
# Caco-2 cell monolayers = assay: Caco-2 bidirectional permeability assay; assay type: in vitro ADME; conditions: Caco-2, 10 μM test article, 90 minutes
# Experimental: as §1, §2, §3
# [2] = system: peripheral blood mononuclear cells (PBMC); assay: Marker expression on stimulated PBMC by flow cytometry; assay type: cell-based, human; conditions: 24 h
# Experimental: Human peripheral blood mononuclear cells (PBMCs) were purified from healthy donors with Ficoll-Paque density centrifugation. Cells were cultured in complete RPMI-1640 media (Invitrogen) supplemented with 25 mM HEPES, L-glutamine, Sodium pyruvate (Sigma), 10% fetal bovine serum, 100 μg/mL penicillin and 100 μg/mL streptomycin (Hyclone) for 24-72 hours in 37° C., 5% CO2 and stimulated with and increasing concentrations of compound 1 and 2. Cells were then washed in PBS and stained with monoclonal antibodies specific for cell surface markers (BD Pharmingen) and analysed with flow cytomtetry using a BD FACS Canto II flow cytometer. All samples were tested in duplicates.
# Human peripheral blood mononuclear cells (PBMCs) were purified from healthy donors with Ficoll-Paque density centrifugation. Cells were cultured in complete RPMI-1640 medium (Invitrogen) supplemented with 25 mM HEPES, L-glutamine, Sodium pyruvate (Sigma), 10% fetal bovine serum, 100 μg/mL penicillin and 100 μg/mL streptomycin (Hyclone). […] The cells were removed from the plate, washed in PBS and analysed for expression of cell specific surface markers and MHC class I with flow cytomtery using monoclonal antibodies from BD Pharmingen and a FACS Canto II flow cytometer.
# [3] = system: PBMCs from CMV infected donors; assay: IFN-gamma secretion from PBMCs of CMV infected donors with CMV antigen (cytometric bead assay); assay type: cell-based, human; conditions: 3 days
# From the text: FIG. 9: Interferon-gamma secretion (as measured by cytometric bead assay) from PBMCs (from a CMV+ donor) grown with CMV peptides in the presence or absence of compound 1 or A for 5 days.
# Study 8: PBMCs from CMV infected donors cultured in the presence of CMV antigen where either untreated or exposed to compound 1 or compound 2 for 3 days.
# macrophages = assay: Cytokine secretion from macrophages (cytometric bead assay); assay type: cell-based, human
# Experimental: FIG. 10: Interferon-gamma secretion (as measured by cytometric bead assay) from macrophages stimulated with indicated compound for 48 h.
# FIG. 11: Chemokine RANTES secretion (as measured by cytometric bead assay) from PBMC or macrophages stimulated with indicated compound for 48 h.
# FIG. 12: IL12p70 secretion (as measured by cytometric bead assay) from PBMC or macrophages stimulated with indicated compound for 48 h.
# FIG. 13: IL1 b secretion (as measured by cytometric bead assay) from PBMC, macrophages or CD4 T cells stimulated with indicated compound for 48 h.
# Study 9: Macrophages from healthy donors where exposed to compounds 1 or 2 for 48 hours. […] Compound 1 is therefore able to induce IFN-gamma secretion in macrophages from healthy donors.
# Study 10: PBMCs and macrophages where exposed to compounds 1 or 2 for 2 days (FIG. 11).
# Study 11: PBMCs and macrophages where exposed to compounds 1 and 2 for 2 days.
# Study 12: PBMCs, macrophages and CD4+ T cells where exposed to compounds 1 and 2 for 2 days.
# C57bl/6 mice = assay: MHC class I expression on CD11b+ splenocytes of mice after i.v. injection; assay type: in vivo; conditions: spleen removed 24 h later
# Experimental: FIG. 15: % MHC class I high CD11 b+ cells in spleen of 3 individual C57bl/6 mice injected 24 h previously with indicated compound. MHC class I and CD11 b expression was measured by flow cytometry.
# Study 14: Compound 1 or 2 was administered i.v. to C57bl/6 mice.
# [4] = system: E. coli, S. salivarius, L. casei, B. longum, M. luteus; assay: MIC assay, summary over all bacterial strains tested; assay type: cell-based; conditions: any of the strains tested
# Experimental: The bioactivity of macrolide compounds against 4 strains of common gut bacteria (Escherichia coli, Streptococcus salivarius subsp. salivarius, Lactobacillus casei and Bifidobacterium longum subsp. infantis) and common mammalian skin isolate Micrococcus luteus, was assessed using the Minimum Inhibitory Concentration (MIC) assay. Bacterial strains were purchased from DSMZ (Brunswick, Germany) except M. luteus which was obtained from NCIMB, and stored in 20% glycerol at −80° C. Stock solutions (100% DMSO) of positive controls (azithromycin and erythromycin), and of test compounds 1 and 2 were diluted in broth to working stock concentrations of 256 μg/ml (final assay testing concentration range 128 μg/ml to 0.00391 μg/ml). Stock solutions of all other compounds were diluted in broth to working stock concentrations of 128 μg/ml (final assay testing concentration range 64 μg/ml to 0.00195 μg/ml). Bacterial strains were cultivated in appropriate broth in an anaerobic chamber at 37° C., except for M. luteus which was incubated aerobically at 37° C. 18 h cultures were diluted in broth to an OD595 of 0.1 and then further diluted 1:10. In 96-well plates, in duplicate, 200 μl working stock of test compound was transferred to well 1 and serially diluted (1:2) in broth. 100 μl bacterial suspension was aliquoted into each well and mixed thoroughly. Appropriate sterility controls were included and plates were incubated in an anaerobic chamber, or aerobically (M. luteus) at 37° C. for 18 h. The MIC was determined to be the concentration of test compound in the first well with no visible growth.
smiles,measurement,setting,value
CC[C@H]1OC(=O)[C@H](C)[C@@H](O[C@H]2C[C@@H](N(C)C)[C@H](O)[C@@H](C)O2)[C@H](C)[C@@H](O)[C@](C)(O)C[C@@H](C)CN(C)[C@H](C)[C@@H](O)[C@]1(C)O [Compound 1],"efflux ratio at 90 minutes, 10 μM",[1],63
same,Papp,Caco-2 cell monolayers,0.32 × 10^6/cm · s^−1
same,activation marker CD69 on CD4+ T cells and B cells,[2]; 1 μM,upregulated
same,MHC class I molecule (HLA-ABC) on T- and B-cells,[2],upregulation
same,IFN-gamma secretion,[3],induced secretion of high levels of IFN-gamma
same,IL-1 beta secretion in macrophages,macrophages; 2 days,increased
same,IL-12p70 secretion from macrophages,macrophages; 2 days,secreted IL-12p70
same,IFN-gamma secretion from macrophages,macrophages; 48 hours,secreted IFN-gamma
same,splenocyte cells with high MHC I expression (CD11b+),C57bl/6 mice,induced an increase
same,antibacterial activity against the bacterial strains tested (in words),[4],no antibacterial activity
